Reference: PMC8654833 (Scientific Reports, 2021)

Tests used:
5-HT1B = molecular target: T1, 5-HT1B (Rattus norvegicus, UniProt P28564); assay: Single-concentration radioligand binding screen (Eurofins Cerep), 5-HT1B; conditions: read-out: %Binding inhibition at 10 µM
T1 construct: Eurofins Cerep (contract assay)
Procedure: (§1) This study included binding assays (87 GPCR targets), measured as % of binding inhibition of a reference radioligand, as well as uptake and enzyme assays (19 targets), the latter measured as % inhibition of control enzyme activity. […] It was performed by radioligand binding competition by Euroscreen (Euroscreen FAST, Belgium). The following nanomolar concentrations were tested in duplicate: 0.001, 0.01, 0.1, 1, 10, 100, 1000, 10,000. Dose–response curves were fitted with the least squares method. IC50 results are shown as pIC50, corresponding to the negative log10 of IC50 in molar.

DAT [1] = molecular target: T2, DAT (Homo sapiens, UniProt Q01959); assay: Single-concentration radioligand binding screen (Eurofins Cerep), dopamine transporter; conditions: single concentration 10 µM screen, [3H]BTCP
T2 construct: Euroscreen FAST (contract assay)
T2 sequence (Q01959 whole entry, species assumed): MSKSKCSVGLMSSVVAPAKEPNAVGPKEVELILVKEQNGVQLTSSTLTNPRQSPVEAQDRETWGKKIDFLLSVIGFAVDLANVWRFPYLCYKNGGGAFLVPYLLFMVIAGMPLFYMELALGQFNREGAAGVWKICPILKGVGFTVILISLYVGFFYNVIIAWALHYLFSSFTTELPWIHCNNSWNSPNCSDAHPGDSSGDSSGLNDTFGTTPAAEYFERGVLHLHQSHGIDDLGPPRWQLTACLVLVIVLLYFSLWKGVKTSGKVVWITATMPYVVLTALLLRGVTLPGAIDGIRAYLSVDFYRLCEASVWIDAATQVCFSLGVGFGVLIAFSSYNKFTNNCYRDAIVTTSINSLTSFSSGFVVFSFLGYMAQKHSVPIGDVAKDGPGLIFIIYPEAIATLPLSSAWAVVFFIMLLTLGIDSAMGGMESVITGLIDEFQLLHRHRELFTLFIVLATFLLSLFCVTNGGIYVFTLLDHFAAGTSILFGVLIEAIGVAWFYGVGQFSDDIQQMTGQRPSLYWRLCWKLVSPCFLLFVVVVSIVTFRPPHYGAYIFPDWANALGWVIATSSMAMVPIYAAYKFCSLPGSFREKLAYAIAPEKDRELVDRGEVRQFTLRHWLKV
Procedure: as §1

5-HT7 = molecular target: T3, 5-HT7 (Homo sapiens, UniProt P34969); assay: Single-concentration radioligand binding screen (Eurofins Cerep), 5-HT7; conditions: single concentration 10 µM screen, [3H]LSD
T3 construct: Euroscreen FAST (contract assay)
T3 sequence (P34969 whole entry, species assumed): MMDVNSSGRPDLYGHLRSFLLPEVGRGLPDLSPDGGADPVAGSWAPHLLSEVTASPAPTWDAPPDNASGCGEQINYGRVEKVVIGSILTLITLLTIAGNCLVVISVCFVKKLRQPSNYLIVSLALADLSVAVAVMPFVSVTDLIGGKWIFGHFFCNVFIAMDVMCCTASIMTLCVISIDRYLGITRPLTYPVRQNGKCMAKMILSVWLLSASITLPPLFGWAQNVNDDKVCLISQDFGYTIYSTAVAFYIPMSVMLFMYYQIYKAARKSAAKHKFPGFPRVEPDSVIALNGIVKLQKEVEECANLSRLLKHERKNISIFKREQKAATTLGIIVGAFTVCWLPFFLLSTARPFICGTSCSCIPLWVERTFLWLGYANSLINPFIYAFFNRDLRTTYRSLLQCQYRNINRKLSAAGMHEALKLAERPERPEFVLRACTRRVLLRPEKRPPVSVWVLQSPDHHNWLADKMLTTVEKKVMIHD
Procedure: as §1

DAT [2] = molecular target: T2, DAT; assay: Radioligand binding competition dose-response (Euroscreen), dopamine transporter
Procedure: as §1

Ca^2+ channel, ds = assay: Radioligand binding competition dose-response (Euroscreen), Ca2+ channel diltiazem site
Procedure: as §1

5-HT5A = molecular target: T4, 5-HT5A (Homo sapiens, UniProt P47898); assay: Radioligand binding competition dose-response (Euroscreen), 5-HT5A
T4 construct: Euroscreen FAST (contract assay)
T4 sequence (P47898 whole entry, species assumed): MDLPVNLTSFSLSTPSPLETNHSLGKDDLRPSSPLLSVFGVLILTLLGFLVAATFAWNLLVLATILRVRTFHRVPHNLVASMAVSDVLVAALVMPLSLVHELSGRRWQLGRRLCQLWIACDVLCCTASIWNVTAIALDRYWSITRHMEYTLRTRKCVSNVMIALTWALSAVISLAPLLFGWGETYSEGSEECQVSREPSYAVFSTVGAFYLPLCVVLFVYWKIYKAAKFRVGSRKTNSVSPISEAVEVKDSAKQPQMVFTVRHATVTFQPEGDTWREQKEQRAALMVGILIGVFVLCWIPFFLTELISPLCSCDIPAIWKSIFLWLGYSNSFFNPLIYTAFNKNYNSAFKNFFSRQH
Procedure: as §1

Sod1^G86R mice = assay: Body weight, grip strength, onset and survival follow-up in ALS mouse model; assay type: in vivo; conditions: for median survival: p > 0.05 vs vehicle (109 days)
Text: Osmotic mini-pumps were collected at endstage, and mini-pump emptying was systematically checked. After mini-pump implantation, mice were longitudinally followed for body weight, grip strength and survival.
To this aim, we measured mitral valve thickness using histology (Fig. 3).
Sod1^G86R mice on FVB/N background were produced by rapid lineage extension at Charles River facility, France. The resulting animals were F1 hybrid FVB/NRj and FVB/NCrl. During experimentation, mice were housed at the animal facility of the Faculty of Medicine of the University of Strasbourg, in a conventional sanitary status. […] We included both females and males in equal proportions. […] Mice were sacrificed at end-stage by lethal intraperitoneal injection of pentobarbital (Doléthal 120 mg/kg, Vetoquinol, France). Spinal cord, brain and blood samples were then collected. All animal care and procedures were in accordance with institutional guidelines and European regulations.
Mice were visually monitored daily for any potential ethical issue. Body weight and muscular strength were monitored twice a week. Muscular strength was assessed using a gripmeter test (ALG01, Bioseb, France). Results are the mean of three successive measures and were normalized by body weight. Onset of the pathology was calculated as the time between birth and peak of body weight. Duration of the disease is the time between onset and death of the mouse. End-stage was defined as the inability of the animal to turn around after 3 s placed on the back, and subsequent euthanasia followed. Muscular strength and weight loss are presented as percent loss from disease onset. […] Survival is presented as Kaplan–Meier curves.

5-HT2B receptor = conditions: cited from earlier work
5-HT2B = 5-HT2B (Homo sapiens, UniProt P41595); assay: biochemical; conditions: read-out: %Binding inhibition at 10 µM, dose-response study, maximal concentration 10 µM, [3H]mesulergine
Chain of 5-HT2B (P41595 whole entry, species assumed): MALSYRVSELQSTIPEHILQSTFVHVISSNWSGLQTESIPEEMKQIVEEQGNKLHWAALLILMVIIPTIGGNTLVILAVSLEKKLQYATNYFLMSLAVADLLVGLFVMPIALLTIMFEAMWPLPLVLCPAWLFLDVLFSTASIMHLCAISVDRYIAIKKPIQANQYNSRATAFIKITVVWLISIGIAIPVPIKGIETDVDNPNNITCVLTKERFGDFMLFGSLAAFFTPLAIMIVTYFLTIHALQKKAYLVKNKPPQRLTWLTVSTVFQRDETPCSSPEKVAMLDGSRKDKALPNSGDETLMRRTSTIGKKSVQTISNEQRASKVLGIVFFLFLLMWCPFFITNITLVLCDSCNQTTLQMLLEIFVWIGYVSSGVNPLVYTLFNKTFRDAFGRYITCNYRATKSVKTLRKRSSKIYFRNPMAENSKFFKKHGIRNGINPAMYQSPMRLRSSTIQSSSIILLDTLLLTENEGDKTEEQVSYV

T1 sequence (P28564 whole entry): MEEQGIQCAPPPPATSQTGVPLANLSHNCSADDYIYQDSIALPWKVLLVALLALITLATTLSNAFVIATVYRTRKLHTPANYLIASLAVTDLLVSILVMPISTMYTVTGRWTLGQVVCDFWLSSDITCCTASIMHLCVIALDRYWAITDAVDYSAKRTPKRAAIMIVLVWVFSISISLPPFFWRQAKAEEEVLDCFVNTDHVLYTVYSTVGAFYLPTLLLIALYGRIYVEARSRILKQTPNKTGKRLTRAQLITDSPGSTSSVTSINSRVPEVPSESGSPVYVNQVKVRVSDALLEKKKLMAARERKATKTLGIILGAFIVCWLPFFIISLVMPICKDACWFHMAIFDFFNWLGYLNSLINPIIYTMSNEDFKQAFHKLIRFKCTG

CC(N)Cc1c[nH]c2ccc(OCc3cccs3)cc12 (centres unmarked) [BW, 1-[5-(thiophen-2-ylmethoxy)-1H-indol-3-yl]propan-2-amine]
inhibition at 10 µM (5-HT1B): 92%
inhibition at 10 µM (DAT [1]): 81.9%
inhibition at 10 µM (5-HT7): 89.5%
IC50 (DAT [2]): 741 nM
inhibition at 10 µM (DAT [2]; read-out: %Binding inhibition at 10 µM): 73.2%
pIC50 (Ca^2+ channel, ds; [3H]diltiazem competition): 6.11
%Binding inhibition at 10 µM (Ca^2+ channel, ds; dose-response study, maximal concentration 10 µM, [3H]diltiazem): 35.80%
IC50 (5-HT5A): 1380 nM
inhibition at 10 µM (5-HT5A; dose-response study, maximal concentration 10 µM, [3H]LSD): 84.3%
median survival (Sod1^G86R mice; 1 mg/kg/d): 107 days
median survival (Sod1^G86R mice; 3 mg/kg/d): 109 days
disease onset (Sod1^G86R mice; 1 or 3 mg/kg/d, compared to vehicle): unchanged
agonist activity in rat stomach fundus (5-HT2B receptor): potent agonist
inhibition at 10 µM (5-HT2B): 100%
